Data published in patent US9834755B2, “Compositions and methods for enhanced generation of hematopoietic stem/progenitor cells” (FRED HUTCHINSON CANCER RESEARCH CENTER, priority 2011, dated 2017).
Marks after values point to notes of the source that are not given here.

Tests used:
CD34^+ cord blood HSPC = conditions: culturing HSPC with SR1; cited from earlier work
CD34^+ CB HSPC [1] = assay: In vivo repopulation: cultured progeny of CD34+ CB HSPC transplanted into sublethally irradiated NSG mice; design: species or system human
Description: Sublethally irradiated NOD-SCID IL-2Rγ-null mice (obtained from an established breeding colony at the Fred Hutchinson Cancer Research Center and approved for use by the Fred Hutchinson Cancer Research Center Institutional Animal Care and Use Committee) were infused with the progeny 10,000 starting CD34^+ cells per mouse via tail vein for cord blood experiments and the progeny of 20,000 for PBSC experiments. Repopulating ability of infused cells was assessed at 2-3 weeks post-transplant by bone marrow aspiration and at 13 weeks by bone marrow harvest.
Cells were cultured as described above and transplanted into sublethally irradiated immunodeficient NSG mice. Total human engraftment was defined as percent of human CD45^+ murine CD45.1^− cells based on bone marrow aspirate at 2 weeks post-transplant. Total myeloid engraftment was defined as percent human CD45^+CD33^+ murine CD45.1 cells on bone marrow aspirate at the same time point.
The progeny of 1×10^4 CD34^+ cells were then transplanted into 10 sublethally irradiated NSG mice per condition and engraftment was assessed by bone marrow aspirate at 2 weeks post-transplant. Total human engraftment was defined as percent of human CD45^+ murine CD45.1^− cells based on bone marrow aspirate at 2 weeks post-transplant. Total myeloid engraftment was defined as percent human CD45^+CD33^+ murine CD45.1^− cells on bone marrow aspirate at the same time point.
Transplants into NSG mice were performed as described above, with the cultured progeny of 1×10^4 CD34^+ cells. Cells were cultured in the presence of SR1, Delta1^Ext-IgG 2.5 μg/ml, or SR1 and Delta1^Ext-IgG (2.5 or 5 μg/ml) for 16 days.
Cells were cultured and transplanted as described above with the progeny of 1×10^4 CD34^+ cells transplanted per mouse. Total human, progenitor cell, myeloid, and lymphoid assessments were performed on bone marrow samples. Bone marrow aspirates were performed in the mice at 2 and 8 weeks post-transplant, and mice were sacrificed for bone marrow harvest at 13 weeks.

[2] = system: mobilized peripheral blood stem cells (mPBSC); assay: Ex vivo culture of mobilized peripheral blood stem cells; type: cell-based, human; conditions: mPBSC cultured 16 days
Description: (§1) Human cord blood samples for research were obtained from normal deliveries under Swedish Medical Center Institutional Review Board (Seattle) approval and after consent was obtained. The units were incubated in ammonium chloride red blood cell lysis buffer (consisting of 16.6 g NH4Cl, 2 g NaHCO3 and 74.4 mg EDTA per 2L of water) and resuspended in PBS with 2% human AB serum. Cells were incubated with CD34 Microbeads from Miltenyi Biotec and purified with an Automacs (Miltenyi Biotec). Cells were then frozen and thawed at time of use with PBS+1% FBS. Pools of 2 or more cord blood units were used for all experiments. Peripheral blood stem cells (PBSC) were obtained from a single donor and cryopreserved after CD34^+ cell selection.
Cells were cultured for 16 days in non-tissue-cultured-treated tissue culture flasks (25, 75, and 175-cm^2). Flasks were precoated with Delta1^ext-IgG (ligand preparation described in Delaney C. et al., 2005, Blood 106(8):2693-2699; and Varnum-Finney et al., 2000, J. Cell Science 113: 4313-4318), or human control IgG at 2.5 μg/ml and retronectin 5 μg/ml. Delta1^ext-IgG titrations were performed with concentrations of 0.5, 1.25 (for PBSC), 2.5, or 5 μg/ml. Flasks were incubated at 4° C. overnight or 37° C. for 2 hours and then washed with PBS and blocked with PBS 2% BSA for 30 minutes at 37° C. […]

CD34^+ CB HSPC [3] = assay: Ex vivo culture/expansion of CD34+ cord blood HSPC, cell counts and flow cytometric phenotype; type: cell-based, human
Description: as §1
Cells were cultured for 16 days in non-tissue-cultured-treated tissue culture flasks (25, 75, and 175-cm^2). Flasks were precoated with Delta1^ext-IgG (ligand preparation described in Delaney C. et al., 2005, Blood 106(8):2693-2699; and Varnum-Finney et al., 2000, J. Cell Science 113: 4313-4318), or human control IgG at 2.5 μg/ml and retronectin 5 μg/ml. Delta1^ext-IgG titrations were performed with concentrations of 0.5, 1.25 (for PBSC), 2.5, or 5 μg/ml. Flasks were incubated at 4° C. overnight or 37° C. for 2 hours and then washed with PBS and blocked with PBS 2% BSA for 30 minutes at 37° C. Cells were cultured in StemSpan serum-free expansion medium in the presence of 4 growth factors (IL6 (50 ng/ml), thrombopoietin (50 ng/ml), Flt-3 ligand (50 ng/ml), stem cell factor (50 ng/ml)) or 5 growth factors (4 growth factors plus IL3 (10 ng/ml)). SR-1 was made fresh and added to cells with all feedings at a concentration of 750 nM. Cultures in 25-cm^2 flasks were initiated with between 7×10^4 and 1.3×10^5 CD34^+ cells. Cultures in 75-cm^2 flasks were initiated with 3×10^5 CD34^+ cells. Cells were expanded to larger flasks when they exceeded cell density >1×10^6 cells/ml. Expansions typically occurred on day 7 and 10 of culture. Fresh media with cytokines was added very 3-4 days including the day prior to transplantation.
Immunofluorescence analysis was performed as described (see Ohishi et al., 2002, J Clin Invest. 110(8): 1165-1174), with FITC-labeled antibodies against human CD3, CD14, CD15, CD33, CD34, CD90, phycoerythryin (PE)-labeled antibodies against human CD19, CD56, CD90, CD133, Glycophorin A, CXCR4, PERCP-labeled antibodies against human CD14, CD34, APC-labeled antibodies against human CD45, CD90 and PECy7 labeled antibody against mouse CD45.1.
To determine whether Delta1^Ext-IgG and SR1 in combination were successfully able to expand CD34^+ CB HSPC ex vivo, CD34^+ cell generation, an HSPC enriched population routinely used in clinical application, was assessed at multiple time points in culture as compared to IgG control. CD34^+ CB progenitors were isolated by bead selection and Automacs and then cultured for 21 days in StemSpan serum-free expansion media supplemented with cytokines (TPO, SCF, IL-6, and Flt3-ligand at 50 ng/ml). […] Cells were cultured in the presence of SR1 (750 nM) and Delta1^Ext-IgG (0.5 or 2.5 μg/ml) or an IgG control. The engineered Notch ligand, Delta1^ext-IgG, contains the extracellular domain of Delta1 fused to the Fc portion of human IgG1 and is immobilized on the plastic surface of tissue culture flasks at varying densities. Immobilization of the Fc portion of human IgG1 served as a control construct. […] CD34^+ selected cells were seeded per flask from a pool of 2 CB units. […]

HSPC = conditions: culturing HSPC with SR1; cited from earlier work
CD34^+ CB HSPC [4] = assay: SRC frequency by limiting dilution analysis in NSG mice; type: in vivo, human; conditions: Delta1^Ext-IgG 2.5 μg/ml alone, 5 μg/ml with SR1; for No. mice engrafted, Engraftment with ≧0.5% CD34^+ cells / No. mice engrafted, Engraftment with ≧1% CD33^+ cells / No. mice engrafted, Engraftment with ≧1% CD34^+ cells / No. mice engrafted, Engraftment with ≧5% CD33^+ cells: bone marrow aspirate at 2 weeks
Text: Human cord blood (CB) samples for research were obtained from normal deliveries under Swedish Medical Center Institutional Review Board (Seattle) approval and after consent was obtained. CB samples were red blood cell depleted (Delaney et al., 2010, Nat Med 16(2):232-236), CD34 enriched using CD34^+ immunomagnetic particles (Miltenyi Biotec), purified with Automacs (Miltenyi Biotec), and cryopreserved. […] Cultures were initiated with 7×10^4 to 1.3×10^5 CD34^+ cells for 25-cm^2 flasks and with 3×10^5 CD34^+ cells for 75-cm^2 flasks. Immunofluorescence analysis was performed as described (Ohishi et al., 2002, J Clin Invest. 110(8):1165-1174) with labeled antibodies: FITC (human CD14, CD33, and Lineage); PE (human CD7, CD14, CD15, CD19, CD90, and CD123); PERCP (human CD34); APC (human CD10, CD45, IL3Ra); PECy7 (mouse CD45.1, human CD34); Alexa Fluor 700 (CD38); APC-eFluor 780 (CD45RA). Transplants were performed in sublethally irradiated (275 rad) NOD-SCID IL-2Rγ-null mice (NSG). In vivo engraftment was assessed by immunofluorescence analysis of human cell subsets (human CD45^+ murine CD45.1). On average, the total number of cells infused was 4.25×10^6/mouse for Delta1^ext-IgG alone, 1.88×10^7/mouse for SR1 alone, and 4.76×10^6/mouse for the combination. Statistical analyses were performed as indicated. For limiting dilution analysis, mice were injected with the cultured progeny of the number of CD34^+ cells indicated and bone marrow aspirates performed at 2 weeks. Two engraftment cut-offs were chosen based on percent engraftment observed in non-limiting transplantation studies. The frequency of SRCs was determined by the method of maximum likelihood with L-CALC software (StemCell Technologies) from the proportions of engrafted recipients (A, B).

[5] = limiting dilution analysis, maximum likelihood

## CC(C)n1cnc2c(NCCc3ccc(O)cc3)nc(-c3csc4ccccc34)nc21 [SR1, 4-(2-(2-(benzo[b]thiophen-3-yl)-9-isopropyl-9H-purin-6-ylamino)ethyl)phenol]
CD34^+ cord blood HSPC
  increase in CD34^+ cells: 50 fold
CD34^+ CB HSPC [1]; early time point (2 weeks)
  rapid repopulation by B-lymphoid cells (percent CD45^+CD33^-CD19^+) in comparison with Delta1^Ext-IgG alone or the combination: significantly enhanced
CD34^+ CB HSPC [1]; secondary transplantation, differences not statistically significant
  human engraftment upon secondary transplantation, average CD45^+: 0.11%
[2]
  TNC and CD34^+ cell expansion in vitro: greatest TNC and CD34^+ cell expansion
CD34^+ CB HSPC [3]; 7, 14, 18 and 21 days in culture, alone groups: data not shown
  CD34 expansion compared to IgG control: enhanced CD34 expansion
CD34^+ CB HSPC [3]; 7-16 days in culture
  total nucleated cell (TNC) expansion over IgG control and all Delta1^Ext-IgG conditions: enhanced
CD34^+ CB HSPC [3]; SR1 750 nM, 14 days, p<0.001, p=0.04
  ex vivo generation of total nucleated cells (TNC) compared to Delta1^Ext-IgG (2.5 μg/ml) or SR1 and Delta1^Ext-IgG (5 μg/ml) combined: significantly enhanced
HSPC
  increase in the number of cells with the ability to repopulate immunodeficient mice: 17 fold
CD34^+ CB HSPC [4]; 1000 CD34^+ cells/mouse
  No. mice engrafted, Engraftment with ≧0.5% CD34^+ cells: 1/9
  No. mice engrafted, Engraftment with ≧1% CD33^+ cells: 3/9
  No. mice engrafted, Engraftment with ≧1% CD34^+ cells: 1/9
  No. mice engrafted, Engraftment with ≧5% CD33^+ cells: 1/9
CD34^+ CB HSPC [4]; 4000 CD34^+ cells/mouse
  No. mice engrafted, Engraftment with ≧0.5% CD34^+ cells: 2/9
  No. mice engrafted, Engraftment with ≧1% CD33^+ cells: 5/9
  No. mice engrafted, Engraftment with ≧1% CD34^+ cells: 1/9
  No. mice engrafted, Engraftment with ≧5% CD33^+ cells: 1/9
CD34^+ CB HSPC [4]; 20000 CD34^+ cells/mouse
  No. mice engrafted, Engraftment with ≧0.5% CD34^+ cells: 7/7
  No. mice engrafted, Engraftment with ≧1% CD33^+ cells: 7/7
  No. mice engrafted, Engraftment with ≧1% CD34^+ cells: 6/7
  No. mice engrafted, Engraftment with ≧5% CD33^+ cells: 7/7
CD34^+ CB HSPC [4]; [5]
  CD33^+ SRC frequency per starting cell, Engraftment with ≧1% CD33^+ cells: 1/3868**
  CD33^+ SRC frequency per starting cell, Engraftment with ≧5% CD33^+ cells: 1/10063^##
  CD34^+ SRC frequency per starting cell, Engraftment with ≧0.5% CD34^+ cells: 1/8495**
  CD34^+ SRC frequency per starting cell, Engraftment with ≧1% CD34^+ cells: 1/13514^##
